From patent US20210163593A1, “TREATMENT OF MONOGENIC DISEASES WITH AN ANTI-CD45RC ANTIBODY” (INSERM (INSTITUT NATIONAL DE LA SANTÉ ET DE LA RECHERCHE …, priority 2017, published 2021)

How the values were obtained:
Type in all cases: in vivo, rat
[1] = system: T CD8^+ CD45RC^high cells; assay: Flow cytometry of T cell subsets in muscle and spleen of WT and Dmd^mdx rats after treatment
Method: Muscles of both hind limbs from WT or Dmd^mdx rats were excised and weighed. Muscles were minced and placed in gentle MACS C tubes with collagenase D in the presence of FCS 2%, 1 mM EDTA. Two runs of 30 minutes each in a gentle MACS dissociator were performed with new collagenase added between each run. Cells were suspended in 30 mL of PBS FCS 2%, 1 mM EDTA, were then applied to 15 mL of Hystopaque and centrifuged at 1000 g for 30 minutes without a break. Mononuclear cells were collected from the Hystopaque and PBS interface, washed and suspended in PBS FCS 2%, 1 mM EDTA.
Spleen was harvested, perfused with PBS and digested by collagenase D for 15 minutes at 37° C. Cells were suspended in PBS FCS 2%, 1 mM EDTA and mononuclear cells were recovered as explained above.
Mononuclear cells were stained with antibodies against the following antigens: CD45 (clone OX-1), T-cell receptor (TCR; clone R7/3), CD45RC (clone OX22), CD8 (clone OX8) and CD4 (W3/25), as well as with viability dyes eFluor506 or eFluor450, all from eBiosciences. Analysis was performed on a BD FACS Verse with FACSuite Software version 1.0.6. Post-acquisition analysis was performed with FlowJo software.
(§1) Wild-type (WT) or Dmd^mdx (KO) rats received intraperitoneal injections of a mouse anti-rat CD45RC monoclonal antibody (clone OX22, 2 mg/kg, every 3.5 days) from week 2 of age up to week 12.
(§2) Prednisolone was administered by intraperitoneal injections (0.5 mg/kg, 5 days a week) from week 2 of age up to week 12.

[2] = Weight / animal growth of Dmd^mdx rats during treatment; settings: ip from week 2 up to week 12 of age
Method: FIG. 6 is a set of two graphs showing the weight of wild-type or Dmd^mdx rats during treatment using prednisolone or anti-CD45RC monoclonal antibody. Control littermate wild-type (WT) or Dmd^mdx (KO) rats received intraperitoneal injections of prednisolone or anti-CD45RC monoclonal antibody (OX22) from week 2 up to week 12 of age and weight was recorded at the indicated time points.
as §1, §2

Dmd^mdx rats = assay: Grip test of forelimb muscle strength in Dmd^mdx rats; settings: ip from week 2 of age, tested at 12 weeks
Method: as §1, §2
At week 12 of age treated rats were analyzed for muscle strength using a grip test.
Rats were placed with their forepaws on a grid and were gently pulled backward until they released their grip. A grip meter (Bio-GT3, BIOSEB, France), attached to a force transducer, measured the peak force generated.
To examine whether muscle function was improved by the anti-CD45RC monoclonal antibody treatment, muscle strength was analyzed by a grip test of forelimbs in WT and Dmd^mdx rats at 12 weeks of age after initiation of treatment at 2 weeks of age.

C[C@]12C=CC(=O)C=C1CC[C@@H]1[C@@H]2[C@@H](O)C[C@@]2(C)[C@H]1CC[C@]2(O)C(=O)CO [prednisolone]
T CD8^+ CD45RC^high cells ([1]; ip from week 2 of age, analyzed at 12 weeks, muscle of Dmd^mdx rats and spleen of WT and Dmd^mdx rats): specific decrease | CD4^+CD45RC^high cells ([1]; muscle and spleen of Dmd^mdx rats and spleen of WT rats, data not shown): numerically reduced | CD8^+CD45RC^int/neg cells ([1]; muscle and spleen of Dmd^mdx rats and spleen of WT rats, week 12): maintained | animal growth (weight) [2]: severe reduction | muscle strength (grip test) in treated Dmd^mdx rats compared with WT littermate controls (Dmd^mdx rats): levels identical to those of WT | muscle strength (grip test) in treated vs. untreated Dmd^mdx rats (Dmd^mdx rats): increased
